The text below walks through data of patent US20190343907A1, “Synergistic Compositions and Methods of Achieving Homeostasis in Mammalian Systems” (priority 2017, published 2019).

For one assay, the system named is shingles. The experiment in a line: Case history: shingles. Type of assay: in vivo, human. Conditions: prescription taken, within 1 week. From the text: A person was diagnosed with shingles on the lower jaw and on the scalp. […] The subject was given the lotion of Example 1 with instructions to pre-treat the area with a menthol cream five minutes before applying the treatment cream. Twice daily application to the border of the shingles lesions along the axis of red streaks prevented further expansion of the […] lesions. In areas of blisters that had not ruptured, application of the treatment cream caused the blisters to recede and not rupture. […] Episodes of recurring post-herpetic neuralgia were treated successfully over the next six weeks with the cream giving reduction of redness, itching and pain.

The subject of the next assay is migraine headaches. The assay can be described thus: Case history: migraine headaches. It is filed as in vivo, human. Conditions: prescription, same subject. From the text:
A person experienced stress-induced episodes of migraine headaches five to six times/year, each preceded by a “trigger signal” of slight dizziness or light-headedness. […] The lotion of Example 1 was supplied by the subject. […] No migraine episodes have occurred in the past eight months.

Turning to `Nc1nc2c(ncn2COCCO)c(=O)[nH]1` [acyclovir], the “relief from pain or itching” value with shingles is given as “no relief from pain or itching”. As to `CNS(=O)(=O)Cc1ccc2[nH]cc(CCN(C)C)c2c1` [Sumatriptan], the migraine pain relief result with migraine headaches is “slow to relieve the pain”.
